This note sets out measurements from patent US20240317735A1, “HYDROISOQUINOLINE OR HYDRONAPHTHYRIDINE COMPOUNDS FOR THE TREATMENT OF AUTOIMMUNE DISEASE” (Hoffmann-La Roche Inc., priority 2020, published 2024).

This test concerns the target T1, TLR9 (Homo sapiens, UniProt Q9NR96).
T1 sequence (Q9NR96 26-1032): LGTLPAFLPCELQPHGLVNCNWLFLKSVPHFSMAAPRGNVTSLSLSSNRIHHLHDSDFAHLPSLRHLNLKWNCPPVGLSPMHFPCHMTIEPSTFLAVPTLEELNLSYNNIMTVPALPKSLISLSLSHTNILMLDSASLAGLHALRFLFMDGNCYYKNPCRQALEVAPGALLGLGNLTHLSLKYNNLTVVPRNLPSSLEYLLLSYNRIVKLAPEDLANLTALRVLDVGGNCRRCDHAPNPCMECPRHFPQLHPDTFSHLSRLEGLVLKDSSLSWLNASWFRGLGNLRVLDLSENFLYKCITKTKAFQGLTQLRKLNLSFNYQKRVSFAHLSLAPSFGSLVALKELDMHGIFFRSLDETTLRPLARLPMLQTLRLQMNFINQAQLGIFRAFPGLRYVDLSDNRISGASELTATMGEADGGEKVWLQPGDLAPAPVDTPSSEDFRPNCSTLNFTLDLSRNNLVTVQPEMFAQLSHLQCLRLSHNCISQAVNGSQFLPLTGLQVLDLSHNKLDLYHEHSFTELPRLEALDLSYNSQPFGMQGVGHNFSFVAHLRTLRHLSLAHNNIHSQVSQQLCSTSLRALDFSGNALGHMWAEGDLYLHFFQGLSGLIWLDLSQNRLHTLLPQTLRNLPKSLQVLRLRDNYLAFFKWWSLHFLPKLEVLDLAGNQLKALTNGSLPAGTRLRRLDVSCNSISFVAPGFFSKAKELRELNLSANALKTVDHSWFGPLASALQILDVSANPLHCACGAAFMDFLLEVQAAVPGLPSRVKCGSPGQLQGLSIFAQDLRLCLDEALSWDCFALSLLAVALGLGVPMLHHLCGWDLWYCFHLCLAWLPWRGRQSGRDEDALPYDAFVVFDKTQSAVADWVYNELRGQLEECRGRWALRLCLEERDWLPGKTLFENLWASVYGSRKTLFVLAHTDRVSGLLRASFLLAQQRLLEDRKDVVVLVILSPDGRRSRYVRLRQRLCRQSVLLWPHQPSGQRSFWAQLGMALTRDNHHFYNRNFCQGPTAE
Kind of test: Human PBMC cell-based assay (CpG ODN 2216 stimulation). More on the design: These cells express TLR7, TLR8, or TLR9, and therefore are natural responders to respective ligand stimulation; endogenous in cells; host or cells: human PBMC from healthy donor whole blood. To be noted: CpG ODN 2216 at 1 μM, overnight, read-out: hPBMC/TLR9 IC50. The text has this:
Unlike the HEK reporter cell lines, human peripheral blood mononuclear cell (PBMC) represents primary human immune cells in blood mainly consisting of lymphocytes, monocytes, and dendritic cells. These cells express TLR7, TLR8, or TLR9, and therefore are natural responders to respective ligand stimulation. Upon activation of these TLRs, PBMCs secrete similar cytokines and chemokines in vitro and in vivo, and therefore the in vitro potency of a TLR7/8/9 antagonist in human PBMC is readily translatable to its pharmacodynamics response in vivo.
Human peripheral blood mononuclear cells (PBMC) were isolated from freshly-drawn lithium-heparinized (Lithium Heparin Plus blood Collection tube, BD Vacutainer®) healthy donor whole blood by density gradient (Ficoll-Paque™ PLUS, GE Healthcare life Sciences). Briefly, 50 mL of blood was diluted with 25 mL PBS (without Ca^2+, Mg^2+) in a 50 mL conical tube with porous barrier (Leucosep tube, Greiner bio-one), where 15.5 mL Ficoll-Paque was under laid after spinning. Tubes were centrifuged for 20 minutes at 800×g (1946 rpm) with the brake in the off position, and PBMC were collected from the buffy coat. Cells were then washed twice in PBS, and red blood cells were lysed by suspension in 2 mL (Red Blood Cell Lysis Buffer, Alfa Aesar) for 5-10 minutes at room temperature. After a final wash in PBS, PBMC were resuspended at a final concentration of 2×10^6 cells/mL in RPMI-1640 media with GlutaMAX™ (Gibco) supplemented with 10% Fetal Bovine Serum (Sigma) and plated at 150 μL/well (3×10^5 cells/well) in tissue culture treated round bottom 96-well plates (Corning Incorporated). Antagonist compounds (compounds of this invention) solubilized and serial diluted in 100% DMSO were added in duplicate to cells to yield a final concentration of 1% DMSO (v/v). PBMC were incubated with antagonist compounds for 30 minutes at 37° C., 5% CO2 before adding various TLR agonist reagents in 48 μL complete media per well as follows (final concentrations indicated): CpG ODN 2216 (InvivoGen) at 1 μM for TLR9, ORN 06/LyoVec (InvivoGen) at […] for TLR8 and R848 (InvivoGen) at 1p g/mL for TLR7 and TLR8. PBMC were incubated overnight at 37° C. with 5% CO2. Cell culture supernatants were collected, and levels of various human cytokines were assessed by Luminex assay (ProcartaPlex™ Multiplex Immunoassay, Invitrogen) or ELISA procedure according to the manufacturer's recommended protocol (eBioscience, ThermoFisher Scientific). Viability of the cells was also checked with Cell Viability Assay (CellTiter Glo®Luminescent Cell Viability Assay, Promega).
Regarding `C[C@H]1CN(c2ccnc3c2cnn3C)Cc2ccc(N3CCNCC3)cc21` [Example 1, (4R)-4-methyl-2-(1-methylpyrazolo[3,4-b]pyridin-4-yl)-6-piperazin-1-yl-3,4-dihydro-1H-isoquinoline], the IC50 amounted to 396 nM.

As to `Cn1ncc2c(N3CCc4cc(N5CCNCC5)ccc4C3)ccnc21` [Example 3, 2-(1-methylpyrazolo[3,4-b]pyridin-4-yl)-6-piperazin-1-yl-3,4-dihydro-1H-isoquinoline], the IC50 was determined as 434 nM.

With `CC1CN(c2ccnc3c2cnn3C)Cc2ccc(N3CCC4(CCNCC4)CC3)cc21` (stereo not drawn) [Example 4, 3-[4-methyl-2-(1-methylpyrazolo[3,4-b]pyridin-4-yl)-3,4-dihydro-1H-isoquinolin-6-yl]-3,9-diazaspiro[5.5]undecane], the IC50 worked out at 265 nM.

As for `Cc1cc(N2Cc3ccc(N4CCC5(CCNCC5)CC4)cc3C(C)C2)c2cnn(C)c2n1` (stereo not drawn) [Example 5, 3-[2-(1,6-dimethylpyrazolo[3,4-b]pyridin-4-yl)-4-methyl-3,4-dihydro-1H-isoquinolin-6-yl]-3,9-diazaspiro[5.5]undecane], the IC50 was 156 nM.

On to `C[C@H]1CN(c2ccnc3c2cnn3C)Cc2ccc(N3CCN(c4cc5c(cn4)CCNC5)CC3)cc21` [Example 9, 7-[4-[(4R)-4-methyl-2-(1-methylpyrazolo[3,4-b]pyridin-4-yl)-3,4-dihydro-1H-isoquinolin-6-yl]piperazin-1-yl]-1,2,3,4-tetrahydro-2,6-naphthyridine], for which the IC50 is 326 nM.

For the compound `C[C@H]1CN(c2ccnc3c2cnn3C)Cc2ccc(OC[C@H]3CNCCN3)cc21` [Example 18, (4R)-4-methyl-2-(1-methylpyrazolo[3,4-b]pyridin-4-yl)-6-[[(2R)-piperazin-2-yl]methoxy]-3,4-dihydro-1H-isoquinoline], the IC50 was determined as 365 nM.

As to `C[C@H]1CN(c2ccnc3c2cnn3C)Cc2ccc(OC[C@@H]3CNCCN3)cc21` [Example 19, (4R)-4-methyl-2-(1-methylpyrazolo[3,4-b]pyridin-4-yl)-6-[[(2S)-piperazin-2-yl]methoxy]-3,4-dihydro-1H-isoquinoline], the IC50 came out at 395 nM.

Regarding `CO[C@@H]1CN(c2ccc3c(c2)[C@@H](C)CN(c2cc(C)nc4c2cnn4C)C3)C[C@H]1N` [Example 23, (3R,4R)-4-methoxy-1-[(4R)-2-(1,6-dimethylpyrazolo[3,4-b]pyridin-4-yl)-4-methyl-3,4-dihydro-1H-isoquinolin-6-yl]pyrrolidin-3-amine], the IC50 was 240 nM.

For the compound `C[C@H]1CN(c2ccnc3c2cnn3C)Cc2ccc(N3CCC(N4CC(N)C4)CC3)cc21` [Example 28, 1-[1-[(4R)-4-methyl-2-(1-methylpyrazolo[3,4-b]pyridin-4-yl)-3,4-dihydro-1H-isoquinolin-6-yl]-4-piperidyl]azetidin-3-amine], the IC50 is 271 nM.

With `Cc1cc(N2Cc3ccc(OC[C@@H]4CNCCN4)cc3[C@@H](C)C2)c2cnn(C)c2n1` [Example 31, (4R)-2-(1,6-dimethylpyrazolo[3,4-b]pyridin-4-yl)-4-methyl-6-[[(2S)-piperazin-2-yl]methoxy]-3,4-dihydro-1H-isoquinoline], the IC50 is 214 nM.

Consider `C[C@H]1CN(c2ccnc3c2cnn3C)Cc2ccc(OC3CN(C4CCNCC4)C3)cc21` [Example 41, (4R)-4-methyl-2-(1-methylpyrazolo[3,4-b]pyridin-4-yl)-6-[1-(4-piperidyl)azetidin-3-yl]oxy-3,4-dihydro-1H-isoquinoline], for which the IC50 turned out to be 286 nM.

As to `Cc1cc(N2Cc3ccc(N4C[C@@H](N)[C@H](O)C4)cc3[C@@H](C)C2)c2cnn(C)c2n1` [Example 47, trans-4-amino-1-[(4R)-2-(1,6-dimethylpyrazolo[3,4-b]pyridin-4-yl)-4-methyl-3,4-dihydro-1H-isoquinolin-6-yl]pyrrolidin-3-ol], the IC50 came to 290 nM.

As for `C[C@H]1CN(c2ccnc3c2cnn3C)Cc2ccc(N3CCN[C@@H](CO)C3)cc21` [Example 50, [(2R)-4-[(4R)-4-methyl-2-(1-methylpyrazolo[3,4-b]pyridin-4-yl)-3,4-dihydro-1H-isoquinolin-6-yl]piperazin-2-yl]methanol], the IC50 was 475 nM.

As for `Cc1cc(N2Cc3ccc(N4CCC(N)CC4)nc3[C@@H](C)C2)c2cnn(C)c2n1` [Example 58, 1-[(8S)-6-(1,6-dimethylpyrazolo[3,4-b]pyridin-4-yl)-8-methyl-7,8-dihydro-5H-1,6-naphthyridin-2-yl]piperidin-4-amine], the IC50 was determined as 277 nM.

As to `CO[C@@H]1CN(c2ccc3c(n2)[C@@H](C)CN(c2cc(C)nc4c2cnn4C)C3)C[C@H]1N` [Example 63, (3R,4R)-4-methoxy-1-[(8S)-6-(1,6-dimethylpyrazolo[3,4-b]pyridin-4-yl)-8-methyl-7,8-dihydro-5H-1,6-naphthyridin-2-yl]pyrrolidin-3-amine], the IC50 stood at 430 nM.

For `CO[C@H]1CN(c2ccc3c(n2)[C@@H](C)CN(c2cc(C)nc4c2cnn4C)C3)CC[C@@H]1N` [Example 65, (3S,4S)-3-methoxy-1-[(8S)-6-(1,6-dimethylpyrazolo[3,4-b]pyridin-4-yl)-8-methyl-7,8-dihydro-5H-1,6-naphthyridin-2-yl]piperidin-4-amine], the IC50 worked out at 371 nM.

`CO[C@H]1CN(c2cc3c(cn2)CN(c2cc(C)nc4c2cnn4C)C[C@@H]3C)CC[C@@H]1N` [Example 73, (3S,4S)-3-methoxy-1-[(5R)-7-(1,6-dimethylpyrazolo[3,4-b]pyridin-4-yl)-5-methyl-6,8-dihydro-5H-2,7-naphthyridin-3-yl]piperidin-4-amine]: the IC50 was 340 nM.

With `Cc1cc(N2Cc3cnc(N4CCNCC4)cc3[C@@H](C)C2)c2cnn(C)c2n1` [Example 74, (4R)-2-(1,6-dimethylpyrazolo[3,4-b]pyridin-4-yl)-4-methyl-6-piperazin-1-yl-3,4-dihydro-1H-2,7-naphthyridine], the IC50 was 250 nM.
